US10667517B2, “2-(Het)aryl-substituted fused heterocycle derivatives as pesticides” (BAYER CROPSCIENCE AKTIENGESELLSCHSAFT, priority 2015, dated 2020)

Experiments:
[1] = log P (neutral), HPLC on reversed-phase column (C 18), LC-MS neutral range; type: physicochemical; conditions: pH 7.8, ammonium hydrogencarbonate/acetonitrile; for log P (neutral): HPLC reversed-phase C 18, 55° C.; for chromatographic logP: reversed-phase HPLC column (C 18), pH 7.8, HPLC reversed-phase C 18, 55° C.
Method: Temperature: 55° C. […] Called log P (neutral) in the table.

[2] = test system: Spodoptera frugiperda; assay: Spodoptera frugiperda - spray test; type: in vivo; conditions: armyworm caterpillars on maize leaf discs, after 7 days
Method: Spodoptera frugiperda—Spray Test
(§1) • Solvent: 78.0 parts by weight of acetone • 1.5 parts by weight of dimethylformamide • Emulsifier: alkylaryl polyglycol ether
(§2) To produce a suitable active compound preparation, 1 part by weight of active compound is dissolved with the stated parts by weight of solvent and made up with water containing an emulsifier concentration of 1000 ppm until the desired concentration is attained. To produce further test concentrations, the preparation is diluted with emulsifier-containing water.
Leaf discs of maize (Zea mays) are sprayed with an active compound preparation of the desired concentration and, after drying, populated with caterpillars of the armyworm (Spodoptera frugiperda).
After 7 days, the efficacy in % is determined. 100% means that all the caterpillars have been killed; 0% means that no caterpillars have been killed.

[3] = test system: Ctenocephalides felis; assay: Ctenocephalides felis - oral test; type: in vivo; conditions: application rate 100 ppm in citrated cattle blood; adult cat fleas; after 2 days
Method: Ctenocephalides felis—Oral Test • Solvent: dimethyl sulphoxide To produce a suitable active compound preparation, 10 mg of active compound are mixed with 0.5 ml of dimethyl sulphoxide. Dilution with citrated cattle blood gives the desired concentration. About 20 unfed adult cat fleas (Ctenocephalides felis) are placed into a chamber which is closed at the top and bottom with gauze. A metal cylinder whose bottom end is closed with parafilm is placed onto the chamber. The cylinder contains the blood/active compound preparation, which can be imbibed by the fleas through the parafilm membrane. After 2 days, the kill in % is determined. 100% means that all of the fleas have been killed; 0% means that none of the fleas have been killed.

[4] = test system: Lucilia cuprina; assay: Lucilia cuprina test; type: in vivo; conditions: application rate 100 ppm; L1 larvae in minced horsemeat; after 2 days
Method: Lucilia cuprina Test • Solvent: dimethyl sulphoxide To produce a suitable active compound preparation, 10 mg of active compound are mixed with 0.5 ml of dimethyl sulphoxide, and the concentrate is diluted with water to the desired concentration. About 20 L1 larvae of the Australian sheep blowfly (Lucilia cuprina) are transferred into a test vessel containing minced horsemeat and the active compound preparation of the desired concentration. After 2 days, the kill in % is determined. 100% means that all the larvae have been killed; 0% means that no larvae have been killed.

[5] = test system: Phaedon cochleariae; assay: Phaedon cochleariae - spray test; type: in vivo; conditions: mustard beetle larvae on Chinese cabbage leaf discs, after 7 days; for efficacy / pest or weed control at 500 g/ha: application rate 500 g/ha
Method: Phaedon cochleariae—Spray Test
as §1, §2
After 7 days, the efficacy in % is determined. 100% means that all the beetle larvae have been killed; 0% means that no beetle larvae have been killed.

[6] = test system: Ctenocephalides felis; assay: Ctenocephalides felis - in vitro contact tests with adult cat fleas; type: in vivo; conditions: application rate 5 μg/cm^2 (500 g/ha); adult cat fleas in coated tubes; after 48 h; dead or moribund
Method: Ctenocephalides felis—In Vitro Contact Tests with Adult Cat Fleas
For the coating of the test tubes, 9 mg of active compound are first dissolved in 1 ml of acetone p.a. and then diluted to the desired concentration with acetone p.a. 250 μl of the solution are distributed homogeneously on the inner walls and the base of a 25 ml test tube by turning and rocking on an orbital shaker (rocking rotation at 30 rpm for 2 h). With 900 ppm active compound solution and internal surface 44.7 cm^2, given homogeneous distribution, an area-based dose of 5 μg/cm^2 is achieved.
After the solvent has evaporated off, the tubes are populated with 5-10 adult cat fleas (Ctenocephalides felis), sealed with a perforated plastic lid and incubated in a horizontal position at room temperature and ambient humidity. After 48 h, efficacy is determined. To this end, the test tubes are stood upright and the fleas are knocked to the base of the tube. Fleas which remain motionless at the base or move in an uncoordinated manner are considered to be dead or moribund.
100% efficacy means that all the fleas were dead or moribund. 0% efficacy means that no fleas were harmed.

[7] = log P (acidic), HPLC on reversed-phase column (C 18), LC-MS acidic range; type: physicochemical; conditions: HPLC reversed-phase C 18, 55° C., pH 2.7, 0.1% formic acid/acetonitrile; for chromatographic logP: reversed-phase HPLC column (C 18)
Text: Called log P (HCOOH) in the table.

[8] = test system: Myzus persicae; assay: Myzus persicae - spray test; type: in vivo; conditions: all stages of green peach aphid on Chinese cabbage leaf discs, after 5-6 days
Method: Myzus persicae—Spray Test
• Solvent: 78 parts by weight of acetone • 1.5 parts by weight of dimethylformamide • Emulsifier: alkylaryl polyglycol ether
as §2
Discs of Chinese cabbage leaves (Brassica pekinensis) infested by all stages of the green peach aphid (Myzus persicae) are sprayed with an active compound preparation of the desired concentration.
After 5-6 days, the efficacy in % is determined. 100% means that all the aphids have been killed; 0% means that no aphids have been killed.

[9] = test system: Musca domestica; assay: Musca domestica test; type: in vivo; conditions: application rate 100 ppm; adult houseflies, sponge with sugar solution; after 2 days
Method: Musca domestica Test • Solvent: dimethyl sulphoxide To produce a suitable active compound preparation, 10 mg of active compound are mixed with 0.5 ml of dimethyl sulphoxide, and the concentrate is diluted with water to the desired concentration. Vessels containing a sponge treated with sugar solution and the active compound preparation of the desired concentration are populated with 10 adult houseflies (Musca domestica). After 2 days, the kill in % is determined. 100% means that all of the flies have been killed; 0% means that none of the flies have been killed.

[10] = Phaedon cochleariae, foliar, 168 h, read-out: efficacy

SMILES	log P (neutral) [1]	efficacy ([2]; application rate 500 g/ha)	efficacy [5]	efficacy ([8]; application rate 500 g/ha)	other results
CCS(=O)(=O)c1ccc(NC(=O)C2CC2)nc1-c1nc2cc(C(F)(F)F)ccc2n1C [Example I-10]	2.92	100%	100%		efficacy (kill) [3]: 100%; efficacy (kill) [4]: 95%; efficacy [6]: 100%
CCS(=O)(=O)c1ccc(NC(C)=O)nc1-c1nc2cc3c(cc2n1C)OC(F)(F)O3 [Example I-7, N-[6-(2,2-Difluoro-7-methyl-[1,3]dioxolo[4,5-f]benzimidazol-6-yl)-5-ethylsulphonyl-2-pyridyl]acetamide]		83%			chromatographic logP [1]: 2.42; pest or weed control at 500 g/ha [5, 10]: 100%
CCS(=O)(=O)c1ccc(-n2cc(Cl)cn2)nc1-c1cn2cnc(C(F)(F)F)cc2n1 [Example I-17, 2-[6-(4-Chloro-1H-pyrazol-1-yl)-3-(ethylsulphonyl)pyridin-2-yl]-7-(trifluoromethyl)imidazo[1,2-c]pyrimidine]		100%			chromatographic logP [1]: 3.46; pest or weed control at 500 g/ha [5, 10]: 100%
CCS(=O)(=O)c1ccc(-n2cc(Cl)cn2)nc1-c1nc2cc(C(F)(F)F)cnc2n1C [Example I-14]	3.9	100%	100%		efficacy (kill) [4]: 100%
CCS(=O)(=O)c1ccc(-n2cc(C(F)(F)F)cn2)nc1-c1nc2cc(C(F)(F)F)ccc2n1C [Example I-1, 2-{3-(Ethylsulphonyl)-6-[4-(trifluoromethyl)-1H-pyrazol-1-yl]pyridin-2-yl}-1-methyl-5-(trifluoromethyl)-1H-benzimidazole]		100%			chromatographic logP [1]: 4.16; pest or weed control at 500 g/ha [5, 10]: 100%
Fc1ccc(F)c(-c2cn3cc(C(F)(F)F)ncc3n2)n1 [IX-6, 2-(3,6-Difluoropyridin-2-yl)-6-(trifluoromethyl)imidazo[1,2-a]pyrazine]					chromatographic logP [7]: 2.05
CCS(=O)(=O)c1ccc(NC(C)=O)nc1-c1cn2cnc(C(F)(F)F)cc2n1 [Example I-32]	1.99	80%	100%	90%	
CCS(=O)(=O)c1ccc(-n2ccc(C(F)(F)F)n2)nc1-c1cn2cnc(C(F)(F)F)cc2n1 [Example I-29]		100%	100%		
CCS(=O)(=O)c1ccc(NC(C)=O)nc1-c1nc2cc(C(F)(F)F)cnc2n1C [Example I-5, N-{5-(Ethylsulphonyl)-6-[3-methyl-6-(trifluoromethyl)-3H-imidazo[4,5-b]pyridin-2-yl]pyridin-2-yl}acetamide]				90%	chromatographic logP [1]: 2.3; pest or weed control at 500 g/ha [5, 10]: 100%; efficacy ([2]; application rate 100 g/ha): 100%
CCS(=O)(=O)c1ccc(N)nc1-c1cn2cnc(C(F)(F)F)cc2n1 [Example I-31]	1.59	100%	100%	90%	
CCS(=O)(=O)c1ccc(C(=O)NC)nc1-c1cn2cnc(C(F)(F)F)cc2n1 [Example I-38, 5-(Ethylsulphonyl)-N-methyl-6-[7-(trifluoromethyl)imidazo[1,2-c]pyrimidin-2-yl]pyridine-2-carboxamide]					chromatographic logP [7]: 1.95
CCS(=O)(=O)c1ccc(NC(=O)CSC)nc1-c1nc2cc(C(F)(F)F)cnc2n1C [Example I-20]	2.79		100%	90%	
CCS(=O)(=O)c1ccc(-n2cc(F)cn2)nc1-c1cn2cnc(C(F)(F)F)cc2n1 [Example I-30]					log P (acidic) [7]: 3.13
CCS(=O)(=O)c1ccc(NC(=O)C(C)CSC)nc1-c1nc2cc(C(F)(F)F)cnc2n1C (centres unmarked) [Example I-25]			100%	90%	
CCS(=O)(=O)c1ccc(-n2ccc(C(F)(F)F)n2)nc1-c1nc2cc(C(F)(F)F)cnc2n1C [Example I-13]		100%	100%		efficacy (kill) [4]: 100%; efficacy (kill) [9]: 80%
CCS(=O)(=O)c1ccc(-n2cc(C(F)(F)F)cn2)nc1-c1nc2cc(C(F)(F)F)cnc2n1C [Example I-4, 2-{3-(Ethylsulphonyl)-6-[4-(trifluoromethyl)-1H-pyrazol-1-yl]pyridin-2-yl}-3-methyl-6-(trifluoromethyl)-3H-imidazo[4,5-b]pyridine]		100%			chromatographic logP [1]: 4.04; efficacy (kill) [4]: 100%; pest or weed control at 100 g/ha ([5]; Phaedon cochleariae, foliar, 168 h, application rate 100 g/ha, read-out: efficacy): 83%; efficacy (kill) [9]: 80%
CCS(=O)(=O)c1ccc(-n2cc(F)cn2)nc1-c1nc2cc(C(F)(F)F)cnc2n1C [Example I-24]	3.55	100%	100%	90%	
CCS(=O)(=O)c1ccc(N)nc1-c1nc2cc(C(F)(F)F)ccc2n1C [Example I-3, 5-(Ethylsulphonyl)-6-[1-methyl-5-(trifluoromethyl)-1H-benzimidazol-2-yl]pyridin-2-amine]				100%	chromatographic logP [1]: 2.18; pest or weed control at 500 g/ha [5, 10]: 100%

More lines, main results first:

log P (neutral) [1]	SMILES	efficacy ([2]; application rate 500 g/ha)	efficacy [5]	efficacy ([8]; application rate 500 g/ha)	other results
4.23	CC[S+]([O-])c1ccc(-n2cc(C(F)(F)F)cn2)nc1-c1nc2cc(C(F)(F)F)cnc2n1C (centres unmarked) [Example I-12]	100%			
2.66	CCS(=O)(=O)c1ccc(-n2nccn2)nc1-c1nc2cc(C(F)(F)F)cnc2n1C [Example I-23]	100%	100%	90%	
2.76	CCS(=O)(=O)c1ccc(NC(=O)C2CC2)nc1-c1nc2cc(C(F)(F)F)cnc2n1C [Example I-16]	100%	100%	100%	
4.21	CCS(=O)(=O)c1ccc(-n2ccc(C(F)(F)F)n2)nc1-c1nc2cc(C(F)(F)F)ccc2n1C [Example I-9]	100%			efficacy ([8]; application rate 100 g/ha): 90%; efficacy (kill) [4]: 100%
